Several values for one entry are separate records, joined by “and”; a condition that tells them apart may be missing. Identical values can stand only once.
What was measured:
[1] = test system: atopic dermatitis induced with DNCB in NC/Nga mice; test: Sensory evaluation (clinical visual skin score) in DNCB-induced atopic dermatitis; type: in vivo; design: key: total of five item scores, 0 = lowest, 15 = highest; conditions: scale 0-15; for Sensory Evaluation Score, group mean: mean of 5 mice; for Sensory Evaluation Score mean: mean of A and B; for Sensory Evaluation Score mean / Sensory Evaluation Score A / Sensory Evaluation Score B: individual mouse; for Sensory Evaluation Score A: scorer A; for Sensory Evaluation Score B: scorer B
Procedure: Sensory evaluation was performed using the general clinical visual method. The result of visual evaluation was indicated in terms of the total score obtained by adding each of the evaluation scores for the five items shown in the below table. The scoring for the level of dermatitis was performed by two or more persons experienced in this experiment under mutual agreement. The score was set from “0” point, the lowest, to “15” point, the highest (Table 2).

spleen = test: Measurement of spleen weight; type: in vivo, NC/Nga mice; conditions: for relative organ weight of spleen: group mean; for Absolute Comparison of Organs spleen wt. / Relative Comparison of Organs spleen: individual mouse; for Absolute Comparison of Organs spleen wt. mean S.D. / Relative Comparison of Organs spleen mean S.D.: mean of 5 mice
Procedure: The spleen of a sacrificed animal was ablated, removed of fat, and then measured of its weight. When the absolute organ weight of the spleen was compared with that of the positive control group (0.2576±0.043 g), the weight was lower in the order of test drug chlorophyll a 1 mg/kg group (0.1188±0.023 g), chlorophyll a 5 mg/kg group (0.1276±0.011 g), and 5 mg/kg drug control group (0.1376±0.025 g), and all of them were of significance at p<0.05, but were lower than that of the negative control group (0.1734±0.021 g) (FIG. 6).

IgE (Immunoglobulin E) = test: IgE concentration in blood serum (ELISA); type: in vivo, NC/Nga mice; conditions: for IgE Average Concentration / IgE Group Average: blood serum; for IgE Average Concentration: individual specimen; for IgE Group Average: mean of 5 mice
Procedure: The blood collected in a mouse was left at room temperature for 30 minutes and then centrifuged at 3000 rpm for 20 minutes. The blood serum obtained therefrom was analyzed via ELISA kit (Shibayagi, Japan).

[2] = test system: dorsal skin of NC/Nga mice induced with atopic dermatitis using DNCB; test: Dorsal skin inflammation of mice induced with atopic dermatitis (clinical images); type: in vivo; conditions: 15th week, versus positive control, in words
Excerpt: 4-6) Dorsal Skin Inflammation of a Mouse Induced with Atopic Dermatitis • c. The body weight of a mouse was not increased due to DNCB solution used for inducing atopy, however, there was no decrease in body weight by the administration of chlorophyll a. In the positive control group coated with only distilled water after atopy induction using DNCB, there were observed a thick cornified layer and inflammation and damage on skin.

mast cells = test: Histology: number of mast cells in skin (toluidine blue, x200); type: in vivo, NC/Nga mice; conditions: for Average No. of Mast Cells × 200: individual mouse; for Average No. of Mast Cells × 200, Group Mean: mean of 5 mice
Procedure: (§1) 4-7) Histology (H & E, Toluidine Blue Stain) • d. Skin tissues were fixed in 10% formalin for at least 24 hours, prepared into paraffin blocks, cut into pieces in the size of 4 μm, dyed with hematoxylin & eosin (Sigma, USA), and then dyed again with toluidine blue (Sigma, USA) for more accurate identification of inflammatory cells.

[3] = test system: degranulation of mast cells; test: Histology: mast cells per degranulation level; type: in vivo, NC/Nga mice; conditions: for No. of Mast Cells per value of degranulation level 1 / No. of Mast Cells per value of degranulation level 1, mean: intermediate level of degranulation; for No. of Mast Cells per value of degranulation level 1, mean: mean of 5 mice
Procedure: as §1

C=Cc1c(C)c2cc3nc(c4c5[n-]c(cc6nc(cc1[n-]2)C(C)=C6CC)c(C)c5C(=O)[C@@H]4C(=O)OC)[C@@H](CCC(=O)OC/C=C(\C)CCC[C@H](C)CCC[C@H](C)CCCC(C)C)[C@@H]3C.[Mg+2] [chlorophyll a]
Sensory Evaluation Score, group mean ([1]; 1 mg/kg oral daily): 2.7±0.758 and 2.7
Sensory Evaluation Score mean ([1]; 1 mg/kg oral daily): 1.5 and 3 (2×) and 3.5 and 2.5
Sensory Evaluation Score A ([1]; 1 mg/kg oral daily): 2 (2×) and 3 (3×)
Sensory Evaluation Score B ([1]; 1 mg/kg oral daily): 1 and 4 (2×) and 2 and 3
Sensory Evaluation Score, group mean ([1]; 5 mg/kg oral daily): 2.7±1.789 and 2.7
Sensory Evaluation Score mean ([1]; 5 mg/kg oral daily): 5.5 and 1.5 (3×) and 3.5
Sensory Evaluation Score A ([1]; 5 mg/kg oral daily): 5 and 2 (3×) and 3
Sensory Evaluation Score B ([1]; 5 mg/kg oral daily): 6 and 1 (3×) and 4
relative organ weight of spleen (spleen; 1 mg/kg oral daily): 0.418 ± 0.211 g
Absolute Comparison of Organs spleen wt. (spleen; 1 mg/kg oral daily): 0.103 g and 0.114 g and 0.119 g and 0.1 g and 0.158 g
Relative Comparison of Organs spleen (spleen; 1 mg/kg oral daily): 0.355 g/body wt. (100 g) and 0.394 g/body wt. (100 g) and 0.433 g/body wt. (100 g) and 0.370 g/body wt. (100 g) and 0.537 g/body wt. (100 g)
Absolute Comparison of Organs spleen wt. mean S.D. (spleen; 1 mg/kg oral daily): 0.1188 ± 0.023 g
Relative Comparison of Organs spleen mean S.D. (spleen; 1 mg/kg oral daily): 0.418 ± 0.073 g/body wt. (100 g)
relative organ weight of spleen (spleen; 5 mg/kg oral daily): 0.446 ± 0.069 g
Absolute Comparison of Organs spleen wt. (spleen; 5 mg/kg oral daily): 0.144 g and 0.12 g and 0.133 g and 0.122 g and 0.119 g
Relative Comparison of Organs spleen (spleen; 5 mg/kg oral daily): 0.560 g/body wt. (100 g) and 0.383 g/body wt. (100 g) and 0.455 g/body wt. (100 g) and 0.414 g/body wt. (100 g) and 0.416 g/body wt. (100 g)
Absolute Comparison of Organs spleen wt. mean S.D. (spleen; 5 mg/kg oral daily): 0.1276 ± 0.011 g
Relative Comparison of Organs spleen mean S.D. (spleen; 5 mg/kg oral daily): 0.446 ± 0.069 g/body wt. (100 g)
absolute organ weight and relative organ weight of spleen compared with the negative control group (spleen; in words, dose not split): only a little difference
IgE Average Concentration (IgE (Immunoglobulin E); 1 mg/kg oral daily, 1 mg/kg): 104.198 ng/mL and 106.557 ng/mL and 166.675 ng/mL and 119.515 ng/mL and 149.499 ng/mL
IgE Group Average (IgE (Immunoglobulin E); 1 mg/kg oral daily, 1 mg/kg): 121.76 ± 15.58 ng/mL and 129.29 ± 27.60 ng/mL
IgE Average Concentration (IgE (Immunoglobulin E); 5 mg/kg oral daily, 5 mg/kg): 108.757 ng/mL and 115.652 ng/mL and 129.408 ng/mL and 88.578 ng/mL and 104.912 ng/mL
IgE Group Average (IgE (Immunoglobulin E); 5 mg/kg oral daily, 5 mg/kg): 109.46 ± 14.95 ng/mL
value of IgE (IgE (Immunoglobulin E); in words, dose not split): decreased
tissue damage of dorsal skin ([2]; 1 mg/kg oral daily): significant decreases
tissue damage of dorsal skin ([2]; 5 mg/kg oral daily): significant decreases
Average No. of Mast Cells × 200 (mast cells; 1 mg/kg oral daily): 9.3 and 7.6 and 5.4 and 8.9 and 10.4
Average No. of Mast Cells × 200, Group Mean (mast cells; 1 mg/kg oral daily): 8.32±1.195 and 8.32 ± 1.915 and 8.32
Average No. of Mast Cells × 200 (mast cells; 5 mg/kg oral daily): 7.3 and 10 and 12.7 and 11.8 and 11.1
Average No. of Mast Cells × 200, Group Mean (mast cells; 5 mg/kg oral daily): 10.8±2.083 and 10.58 ± 2.083 and 10.58
degranulation count of the mast cells ([3]; 1 mg/kg oral daily, in words): not significantly improved
No. of Mast Cells per value of degranulation level 1 ([3]; 1 mg/kg oral daily, individual mouse, 1 mg/kg): 2.87 and 1.44 and 1.91 and 1.75 and 2.57
No. of Mast Cells per value of degranulation level 1, mean ([3]; 1 mg/kg oral daily, 1 mg/kg): 2.11±0.59 and 2.11
No. of Mast Cells per value of degranulation level 1 ([3]; 5 mg/kg oral daily, individual mouse, 5 mg/kg): 0.75 and 2.31 and 2.76 and 2.57 and 4.31
No. of Mast Cells per value of degranulation level 1, mean ([3]; 5 mg/kg oral daily, 5 mg/kg): 2.54±1.27 and 2.54
No. of Mast Cells per value of degranulation level 0 ([3]; normal degranulation, 1 mg/kg oral daily, individual mouse, 1 mg/kg): 4.12 and 5.55 and 2.82 and 5.89 and 4.83
